The test system of one assay is whole-body lipogenesis. To be noted: among a series of prodrugs; ref Gómez-Galeno et al., 2010; cited from earlier work.
Assay [1] concerns primary mouse hepatocytes. Briefly: Fatty acid esterification, [3H]palmitic acid incorporation into triglycerides. It is filed as cell-based. To be noted: 30 min treatment, then 60 min labeling. On the procedure:
Figure 5 C13 Inhibits Lipid Synthesis and Fatty Acid Esterification in Mouse Hepatocytes in an AMPK-Dependent Manner (A) Mouse hepatocytes were treated with the indicated concentrations of C13 and labeled with [1-^14C]acetate for 3 hr. A769662 (100 μM) and AICAR (0.5 mM) were included as positive controls. Rates of fatty acid and sterol synthesis were estimated by incorporation into saponifiable and nonsaponifiable lipids. Results are expressed as the mean acetate incorporated in micromoles per gram-hour ± SD and are representative of two independent experiments. (B) Mouse hepatocytes were treated with the indicated compounds for 30 min and labeled with media containing 0.5 mM palmitic acid (1 mCi⋅mmol^−1 [9,10-^3H]palmitic acid) for an additional 60 min. Incorporation into triglyceride was determined as described in Experimental Procedures and results are expressed as palmitate incorporated in micromoles per gram-hour ± SD and are representative of three independent experiments. […] Results are expressed as percentage WT vehicle and represent the mean ± SD for three independent experiments. […]
Fatty acid esterification was determined by labeling primary hepatocytes with [9,10-^3H(N)]palmitate. […] Lipids were stained with iodine vapor and triglyceride eluted from TLC scrapings with 1:1 ethanol:Triton X-100, and the incorporation of [^3H] was determined by scintillation counting.

Assay [2] relates to panel of 138 protein kinases. Kind of assay: Kinase inhibition screen. It is filed as biochemical. To be noted: 10 μM. Here is the method: Supplemental Figure Legends:
Figure S1, related to Figures 1-3. Subunit composition of AMPK preparations used in this study. (A) Heterotrimeric AMPK complexes (10 ng) produced in both Sf9 (Sigma and Signalchem) and E.coli (in our laboratory) were analysed by Western blotting using isoform specific antibodies. Note that both the α2/α1-HOOK and α2/α1-LOOP chimeras are no longer recognised by the anti-α2 antibody as the epitope has been replaced (see Fig S4). (B) Heterotrimeric AMPK α2/α1 chimeric complexes expressed in E.coli (2 μg) were separated by SDS-PAGE and stained with Coomassie G-250. Arrows indicate the position of the […]
Figure S2, related to Figure 1. C2 has negligible effects on a panel of 138 protein kinases.
Kinase inhibition screen was performed by the International Centre for Kinase profiling (Dundee). Assays were performed in duplicate using 10 µM C2 and are representative of two independent screens. Results are shown in rank order as mean % activity compared with controls in the absence of compound ± SD. […]
Figure S3, related to Figure 2. […] Results are expressed as mean Pi incorporated in nmol.min-1.mg-1 ± SD. […] Results are expressed as fold increase in activity relative to controls in the absence of compound ± SD.
(E) C2 and AMP displace a GST-AMPKγ2 subunit fusion from ATP-γ-Sepharose. […] The presence of eluted AMPKγ2 was analysed by SDS-PAGE and staining with colloidal Coomassie. […]

Molecules are shown by their SMILES.

For the molecule `CC(C)C(=O)OCOP(=O)(OCOC(=O)C(C)C)c1ccc(C2=NOC(=O)C2)o1` [Compound C13], in the assay on whole-body lipogenesis, the “inhibition of whole-body lipogenesis” value is “most potent inhibition”. In addition, the fatty acid esterification entry in assay [1] was “inhibited”.

With `O=P(O)(O)c1ccc(-c2cc(O)on2)o1` [Compound C2, 5-(5-hydroxyl-isoxazol-3-yl)-furan-2-phosphonic acid], the “effect on upstream kinases of AMPK” value in assay [2] (LKB1, CaMKKβ, and TAK1) is “did not affect”. The “effect on kinase activity” value in assay [2] (includes AMPK-related kinase family) is recorded as “majority were not affected”.

The values above are taken from paper PMC4104029, “Mechanism of Action of Compound-13: An α1-Selective Small Molecule Activator of AMPK” (Chemistry & Biology, 2014).
